In article PMC7395176, “Retromer stabilization results in neuroprotection in a model of Amyotrophic Lateral Sclerosis” (Nature Communications, 2020):

Key:
[1] = system: Vps35, Vps26, and Vps29 mRNAs; assay: Real-time PCR of CRC genes in Neuro2a cells; assay type: cell-based; settings: 10 μM, 48 h
Excerpt: Lumbar spinal tracts dissected from saline-perfused mice or Neuro2A cells were lysed to extract total RNAs using the RNeasy Mini Kit (Qiagen) according to the manufacturer’s recommendations, including DNase (Promega) digestion. We synthetized the cDNA using ThermoScript RT-PCR System (Invitrogen) and Random Hexamer (Invitrogen), according to the manufacturer’s instructions. The LightCycler 480 System (Roche) and LightCycler 480 SYBR Green I Master Mix (Roche) were used for real-time PCR experiments. Normalization was obtained using the housekeeping gene Histone H3:
Compound 2a stabilizes VPS35 levels in Neuro2a cells
A cycloheximide (CHX) chase assay was performed to determine the degradation rate of VPS35 in Neuro2a cells (3x10^5 cells/well). Cells were treated with vehicle or 2a (10 µM) for 24 h, and then chased with CHX (10 µg/mL) for 2, 4 and 8h.
WBs for VPS35 and β-Actin levels. Quantifications of normalized VPS35 levels (means normalized ratios ± SEM versus the time 0) are shown inpanel b (vehicle: n=10 independent wells, 2a: n=8 independent wells obtained from 3 independent experiments; control vs. 2a at 8 hours: p=0.009). c, quantitative real time PCR for Vps35, Vps26 and Vps29 mRNA (Vps35: controls n=8 independent wells; 2a: n=9 independent wells; Vps26 and Vps29: n=9 independent wells/group); data were collected from 3 independent experiments. […]

G93A mice = assay: Daily treatment of G93A and WT mice, day 30 to day 100: tolerability, rotarod, histopathology; assay type: in vivo
Experimental: We administered compound 2a (10 mg/kg, i.p.) daily to G93A and WT littermates between day 30 and day 100. […] We next assessed the pathological degeneration of fibers in sciatic nerves of G93A mice treated with compound 2a. We observed axonal degeneration, with a substantial reduction of myelinated nerve fibers in vehicle-treated G93A mice (Fig. 5a, b)[39]. […] Using Luxol Fast Blue (LFB) to label lipoproteins of the myelin sheath, we analyzed myelination.
Mice were maintained under pathogen-free conditions at San Raffaele Hospital mouse facility (Milan, Italy). All efforts were made to minimize animal suffering and to reduce the number of mice used in accordance with the European Communities Council Directive of 24 November 1986 (86/609/EEC). The Ethics Review Committee approved experimental protocols according guidelines from the Italian Ministry of Health and from the Institutional Animal Care and Use Committee of the San Raffaele Scientific Institute (protocol number 704/2015PR). Transgenic mutant SOD1 mice carrying the SOD1^G93A allele (strain B6SJL-TgN[SOD1G93A]1GUR)[75] were purchased from Jackson laboratories, while C57BL/6J mice, used for breeding and experimental purposes, were purchased from Charles River (Italy). Both transgenic and WT mice had food and water freely available in the home-cage. The holding room was on a 12-h light–dark cycle, the temperature of the room was 22 ± 0.2 °C. Starting from day 30 we intraperitoneally injected compound 2a (10 mg/Kg) or vehicle in G93A mice as well as in C57BL/6J mice for 70 days. Additional experiments were performed injecting mice from day 83 to day 103. An operator blind to the treatment performed injections and manipulation of mice. At the day of the sacrifice, mice received an overdose of anesthetic drugs and they were perfused via vascular system with saline followed by 70–80 ml 4% paraformaldehyde (PF) in PBS, pH 7.2 (Sigma–Aldrich). Spinal cords were coronally sliced at ~6-mm thickness and postfixed in 4% PF in PBS, pH 7.2 for 12 h at +4 °C. Tissues were cryoprotected in PBS 1X/30% Sucrose (Sigma–Aldrich), embedded in OCT inclusion media and stored at −80 °C before processing. Lumbar spinal cords were 12-µm sectioned, labelled and digital images were acquired every 330 µm in a region encompassing 2.4 mm of the lumbar spinal cord. We determined numbers of mice by preliminary results or literature precedent.
Motor activity of mice receiving compound 2a or vehicle was assessed on 50-, 60-, 70-, 80-, 90-, and 100-days-old animals. Briefly, mice were trained 1 min on a static rotor and 1 min at constant speed (4 rpm) for two times and then we ran two trials performed over two consecutive days (one per day). Each trial consisted of 6-test sessions with 15 min interval between sessions. For each session, we placed mice on an accelerating rotor (4–40 rpm) and the latency to fall was recorded, with a maximum limit for individual animal set at 600 seconds.
Quantification of nerves degeneration was done on sciatic nerves obtained from saline-perfused mice. Tissues were fixed in 2% buffered glutaraldehyde (Sigma–Aldrich), postfixed in 1% osmium tetroxide and cut to obtain 1 µm thick sections. We stained sections with toluidine blue and specimens were blindly examined by light microscopy using ×40 objective. For each nerve, we merged images to obtain the entire nerve cross section. Five consecutive nonoverlapping semi-thin sections from each sample were analyzed with NHI-Image J software (US National Institutes of Health). Degenerating fibers were counted in the entire nerve cross section.
Quantification of myelin was done on sagittal sciatic nerves by Luxol fast blue (LFB). Briefly, nerve sections were incubated the ethanol series before receiving 0.1% LFB overnight at 60 °C. Sections were then incubated 5 min in 0.05% lithium carbonate before receiving the ethanol series and xylene. Bright field microcopy of nerves at ×63 was used for quantification. […]

NC(N)=N/N=C/c1cccc(/C=N/N=C(N)N)c1 [compound 2a, phenyl-1,3-bis-guanylhydrazone]
transcription levels of CRC genes (Vps35, Vps26, Vps29 mRNAs) [1]: did not influence
distress or pain (G93A mice; 10 mg/kg i.p. daily, day 30 to day 100): did not observe distress or undesirable pain
progression of motor deficits (latency to fall, rotarod) (G93A mice; G93A mice, 10 mg/kg i.p. daily, day 30 to day 100): significantly slowed down
reduction of degenerating fibers in sciatic nerves (G93A mice; G93A mice, 10 mg/kg, day 100): ~30%
MNs in ventral horns of lumbar SCs (G93A mice; G93A mice, 10 mg/kg, day 100, versus vehicle-treated G93A mice): more MNs
total number of Iba1+ cells (G93A mice; SC ventral horn, G93A mice, 10 mg/kg, day 100, versus vehicle): Neither CD14 levels nor the total number of Iba1^+ cells changed
body weight (G93A mice; WT and G93A mice, 10 mg/kg i.p. daily, day 30 to day 100): slight, but not significant reduction of body weight
locomotion performances (G93A mice; WT mice, 10 mg/kg i.p. daily, rotarod): did not observe alterations of locomotion performances
CD14 levels (G93A mice; lumbar SCs, G93A mice, 10 mg/kg, day 100, versus vehicle): Neither CD14 levels nor the total number of Iba1^+ cells changed
integrity of myelin (MBP, NF-M labelling) (G93A mice; sciatic nerves, G93A mice): preserved the integrity of myelin
demyelination (Luxol Fast Blue) (G93A mice; sciatic nerves, G93A mice, versus vehicle-treated G93A mice): substantial reduction of demyelination
